The text below walks through data of patent publication US20190352644A1, “INHIBITION OF MITOCHONDRIAL HYPOXIC STRESS INDUCED RNA EDITING BY APOBEC3G CYTIDINE DEAMINASE” (Health Research, Inc., priority 2015, published 2019).

For one assay, the target named is T1, APOBEC3A (Homo sapiens, UniProt P31941).
T1 construct: made in house; host or cells: Rosetta 2(DE3)pLysS E. coli; pET21 construct from Dr. Jinwoo Ahn
The assay can be described thus: In vitro SDHB RNA editing assay with purified APOBEC3A. It counts as biochemical. To be noted: chelation of zinc with 10 μM 1,10-phenanthroline, 2 hours at 37° C. On the procedure: Rosetta™ 2(DE3)pLysS E. coli (EMD Millipore®) transformed with a bacterial expression construct for C-His6-tagged APOBEC3A and grown in Luria broth at 37° C. were induced for expression of the recombinant protein with 0.3 mM isopropyl β-D-1-thiogalactopyranoside (IPTG) and cultured overnight at 18° C. Harvested cells were lysed with a French pressure cell (American Instrument Corporation®, Hartland, Wis.) and Ni-NTA His.Bind Resin™ (EMD Millipore®) was used as per manufacturer's instructions to purify APOBEC3A protein from the lysates by affinity chromatography. Isolated protein was concentrated using an Amicon™ Ultra-4 Centrifugal Filter Unit with Ultracel-3 membrane (EMD Millipore®; nominal molecular weight limit of 3 kDa). The concentrated protein was stored in 25 mM Tris (pH 8.0) with 50 mM NaCl, 1 mM DTT, 5% v/v glycerol, and 0.02% w/v sodium azide.
Whole cell lysates of 293T transfectants were prepared using lysis buffer containing 0.2% Surfact-Amps™ NP-40 (Thermo Fisher®), 30 mM 4-(2-hydroxyethyl)-1-piperazine-ethane-sulfonic acid (HEPES; pH 7.5), 100 mM KCl, 25 mM NaCl, 1.5 mM MgCl2, 1 mM DTT, and 0.5× Halt™ protease and phosphatase inhibitor cocktail, and stored with 10% v/v glycerol at −80° C. […]

For a further assay, the system named is HuT78 cells. The assay can be described thus: TM7SF3 C>U RNA editing in HuT78 cells treated with mitochondrial inhibitors or thapsigargin. The assay is classed as cell-based, human. To be noted: HuT78, normoxia; for RNA editing level (TM7SF3): 0.5×10^6 cells per 500 μl, inhibitor 1 μM. The source says: We tested the effect of inhibitors of mitochondrial complex II by atpenin A5 (AtA5) and of the complex III by myxothiazol (MXT) on RNA editing in HuT78 cells cultured in normoxia. Additionally, to test whether endoplasmic reticulum (ER) stress can also induce RNA editing, we treated the cells with Thapsigargin (Tg). Tg is considered to induce ER stress by raising intracellular calcium levels and lowers the ER calcium levels by specifically inhibiting the endoplasmic reticulum Ca^++ ATPase, resulting in the accumulation of unfolded proteins and an increased accumulation eIF-2α phosphorylated at Ser 51 (FIGS. 33c and 35b). To test the effect of hypoxic stress alone on HuT78 cells, we reduced the cell density to avoid cellular crowding and cultured the cells at an intermediate density of 0.5×10^6 cells per 500 μl per well in 24 well plates with or without the chemical inhibitors in normoxia, and hypoxia alone for one or two days. Under these conditions, we determined RNA editing level and the stabilization of HIF-1α in these cells. […] RNA editing levels increased to approximately 30% in cells treated with MXT, AtA5 or hypoxia alone on day 2. […] Furthermore, HIF-1α was stabilized only when the cells were subjected to hypoxia but not in normoxia in the presence or absence of the mitochondrial inhibitors (FIG. 32c).
(§1) For testing the mitochondrial inhibitors, HuT78 and NK-92 cells were cultured at […] cells per 0.5 ml in 24 well plates in normoxia with or without AtA5 and MXT or hypoxia alone for 2 days at 37° C.
(§2) Human IFN-γ was obtained from PeproTech and used at a concentration of 50 ng/ml. AtA5 (Cayman chemical #11898) and MXT (Sigma Aldrich #T5580) was used at a concentration of 1 μM.
(§3) Total RNA was isolated and reverse transcribed to generate cDNAs. DNA primers used for PCR were obtained from Integrated DNA Technologies and are noted in Table 6. Primers used for PCR of cDNA templates were designed such that the amplicons spanned multiple exons. […] To quantify RNA editing level, the major and minor chromatogram peak heights at putative edited nucleotides were quantified with Sequencher 5.0/5.1 software (Gene Codes, MI). […] For quantitative PCR to assess APOBEC3G and APOBEC3F gene expression, reactions using LightCycler™ 480 Probes Master and SYBR™ Green I dye were performed on a LightCycler™ 480 System (Roche). Quantification cycle (Cq) values were calculated by the instrument software using the maximum second derivative method, and the mean Cq value of duplicate PCR reactions was used for analysis.

The next assay concerns NK-92 cells. The assay can be described thus: TM7SF3 C>U RNA editing in NK-92 cells treated with mitochondrial inhibitors. It counts as cell-based, human. The following applies: NK-92, normoxia, intermediate density, 24 well plates, inhibitor 1 μM, 2 days. The method, then:
We treated NK-92 cells with normoxia with or without the mitochondrial inhibitors (AtA5 or MXT) or hypoxia alone at intermediate density in 24 well plates for 2 days. […] The reason behind the difference in hypoxia induced RNA editing level of HuT78 and NK-92 cells may be due to metabolic differences between the two cell lines.
as §1, §2
as §3, with “cDNAs.” for “cDNAs. DNA primers used for PCR were obtained from Integrated DNA Technologies and are noted in Table 6. Primers used for PCR of cDNA templates were designed such that the amplicons spanned multiple exons.”

T1 sequence (P31941 whole entry): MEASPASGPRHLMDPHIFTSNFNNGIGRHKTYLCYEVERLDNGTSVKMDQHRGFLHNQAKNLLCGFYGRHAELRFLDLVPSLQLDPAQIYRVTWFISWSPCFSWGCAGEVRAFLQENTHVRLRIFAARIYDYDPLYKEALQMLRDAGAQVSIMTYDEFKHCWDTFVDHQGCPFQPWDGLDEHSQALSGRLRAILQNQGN

With `c1cnc2c(c1)ccc1cccnc12` [1,10-phenanthroline], at APOBEC3A, the “c.136C>U editing of SDHB RNA by His6-tagged APOBEC3A” value was “abolished the editing”.
With `COc1[nH]c(=O)c(C(=O)[C@@H](C)C[C@H](C)[C@@H](Cl)CCl)c(O)c1OC` [AtA5, atpenin A5], the “RNA editing level (TM7SF3)” value in the assay with HuT78 cells (day 2) is “approximately 30%”; in the assay with NK-92 cells, ~25%.
For `CO/C(=C/C(N)=O)[C@H](C)[C@H](/C=C/c1csc(-c2csc([C@@H](C)/C=C/C=C/C(C)C)n2)n1)OC` [MXT, myxothiazol], the “RNA editing level (TM7SF3)” value in the assay on HuT78 cells (day 1) is listed as “approximately 10%”; with HuT78 cells (day 2) it was “approximately 30%”; in the assay with NK-92 cells, ~25%.
On to `C/C=C(/C)C(=O)O[C@H]1C(C)=C2[C@H]([C@@H]1OC(=O)CCCCCCC)[C@@](C)(OC(C)=O)C[C@H](OC(=O)CCC)[C@@]1(O)[C@H]2OC(=O)[C@@]1(C)O` [Tg, Thapsigargin], for which the “induction of RNA editing (TM7SF3)” value in the assay with HuT78 cells (one or two days) is reported as “did not induce RNA editing”.
